{"source": "patent US20250127180A1", "about": "“PARTICLES COMPRISING DOUBLE STRANDED RNA AND USE OF SAME IN AGRICULTURE” (priority 2022, published 2025)", "test_system": "B. cinerea", "assay": "In-vitro fungal growth, O.D at 600 nm", "type": "cell-based, Botrytis cinerea", "description": "To test the effect of commonly used fungicide on B. cinerea growth, ‘Procloraz’ (Sportak, Bayer Cropscience LLC, Monheim am Rhein, Germany) or ‘fludioxonil’ (scholar, Hod-Hasharon, Israel) fungicide were diluted in 1% SMB to final concentrations of 1-1000 ppb or 0.01-1,000 ppb, respectively.\nThe plates were incubated at room temperature and O.D measurement at 600 nm was taken every hour for 48-72 hours using Synergy LX plate reader (BioTek, Winooski, Vermont, United States). The absorbance of three wells of repeats was averaged together and was background-corrected by subtracting the average absorbance of media alone at time zero (Galsurker et al., 2020; Langvad, 1999). Growth inhibition percentage was calculated (O.D in control well−O.D in treatment well)/O.D in control well×100) (Meletiadis et al., 2003). Coefficient treatment interaction (CTI) was calculated as follows: CTI=AB/(A×B). AB is the ratio of the treatment combination to control; A, or B is the ratio of the single treatment to control. Coefficient treatment interaction is considered as synergistic when CTI<1 (Chen et al., 2014).", "data": [{"smiles": "CC(C)[C@@H](C)/C=C/[C@@H](C)[C@H]1CC[C@H]2C3=CC=C4C[C@@H](O)CC[C@]4(C)[C@H]3CC[C@]12C", "note": "[ergosterol]", "values": [{"measurement": "fungal growth", "setting": "ergosterol added to control", "value": "did not alter fungal growth"}]}, {"smiles": "CCCN(CCOc1c(Cl)cc(Cl)cc1Cl)C(=O)n1ccnc1", "note": "[Prochloraz, prochloraz]", "values": [{"measurement": "fungal growth (O.D)", "setting": "1-1,000 ppb in growth media", "value": "dose-dependent reduction of fungal growth"}]}, {"smiles": "N#Cc1c[nH]cc1-c1cccc2c1OC(F)(F)O2", "note": "[Fludioxonil]", "values": [{"measurement": "B. cinerea growth", "setting": "0.01-1,000 ppb, data not shown", "value": "reduced B. cinerea growth in a non-linear manner"}]}]}
